Results on two compounds are retold here after patent publication US11890292B2, “Compositions, methods, systems and/or kits for preventing and/or treating neoplasms” (Research Cancer Institute of America, priority 2017, dated 2024).

The test system of one data set is glioma cells. The following applies: cited from earlier work.
For data set [1] the following is noted: cited from earlier work.
A further data set has as its system one or more cancers. The conditions noted are these: cyclophosphamide only.

Structures are written as SMILES.

Description for one or more cancers: One or more patients are identified who have one or more cancers selected from lung carcinoma, prostate cancer, gliaoblastoma multiform, hormone refractory prostate cancer, solid tumor malignancies such as colon carcinoma, non-small cell lung cancer (NSCLC), anaplastic astrocytoma, bladder carcinoma, sarcoma, ovarian carcinoma, rectal hemangiopericytoma, pancreatic carcinoma, advanced cancer, cancer of large bowel, stomach, pancreas, ovaries, melanoma pancreatic cancer, colon cancer, and bladder cancer.
The one or more patients are administered a formulation comprising cyclophosphamide only. […] On the day of the next administration and prior to the administration, as assessment of the outcome of treatment until that point is conducted and compared to all previous assessments.
Patients are then administered a combination of cyclophosphamide and quercetin and SPB. […] An assessment of the outcome of treatment is periodically made.

Regarding `O=c1c(O)c(-c2ccc(O)c(O)c2)oc2cc(O)cc(O)c12` [Quercetin, quercetin], the “angiogenesis in glioma cells” value with glioma cells is “suppression of angiogenesis”. Further, the water solubility result in data set [1] is “not water soluble”.

`O=P1(N(CCCl)CCCl)NCCCO1` (stereo not drawn) [cyclophosphamide]: the “response of the cancers following the initial response period” value in the data set on one or more cancers was “become resistant”.
